Experiments:
[1] = molecular target: hERG (Homo sapiens (Human), UniProt Q12809); assay: Patch clamp assay (hERG tail currents, whole-cell); format: cell-based; conditions: hERG transfected HEK 293 cells; for hERG % Remaining 30 μM: 30 μM compound; for hERG % Remaining 10 μM: 10 μM compound
[2] = molecular target: Menin-MLL (Homo sapiens (Human), UniProt O00255); assay: Determination of binding constants (Ki) to Menin-MLL (HTRF); conditions: HTRF, 0.25 nM H-FL-Menin, 3.2 nM FITC-MLL-4-43, 24 hr incubation; for Ki: read-out: Menin-MLL Ki HTRF Assay: Ki
Chain of Menin-MLL (O00255 whole entry): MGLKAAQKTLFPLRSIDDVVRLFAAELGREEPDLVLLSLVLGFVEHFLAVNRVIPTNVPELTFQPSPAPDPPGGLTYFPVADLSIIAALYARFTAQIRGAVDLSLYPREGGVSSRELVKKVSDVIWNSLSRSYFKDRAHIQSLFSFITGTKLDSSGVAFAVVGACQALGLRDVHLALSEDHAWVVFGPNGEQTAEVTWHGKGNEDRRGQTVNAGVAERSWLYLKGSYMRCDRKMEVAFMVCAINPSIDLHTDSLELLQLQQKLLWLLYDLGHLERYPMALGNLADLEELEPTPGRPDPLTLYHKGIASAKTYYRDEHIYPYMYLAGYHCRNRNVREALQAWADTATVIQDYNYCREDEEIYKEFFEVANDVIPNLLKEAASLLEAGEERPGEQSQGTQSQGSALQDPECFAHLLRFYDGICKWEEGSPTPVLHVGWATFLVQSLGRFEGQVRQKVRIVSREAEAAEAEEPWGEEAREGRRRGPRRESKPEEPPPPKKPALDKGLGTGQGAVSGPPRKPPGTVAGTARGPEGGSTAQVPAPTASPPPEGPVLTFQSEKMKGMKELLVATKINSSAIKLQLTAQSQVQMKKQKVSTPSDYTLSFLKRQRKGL

Chain of hERG (Q12809 whole entry): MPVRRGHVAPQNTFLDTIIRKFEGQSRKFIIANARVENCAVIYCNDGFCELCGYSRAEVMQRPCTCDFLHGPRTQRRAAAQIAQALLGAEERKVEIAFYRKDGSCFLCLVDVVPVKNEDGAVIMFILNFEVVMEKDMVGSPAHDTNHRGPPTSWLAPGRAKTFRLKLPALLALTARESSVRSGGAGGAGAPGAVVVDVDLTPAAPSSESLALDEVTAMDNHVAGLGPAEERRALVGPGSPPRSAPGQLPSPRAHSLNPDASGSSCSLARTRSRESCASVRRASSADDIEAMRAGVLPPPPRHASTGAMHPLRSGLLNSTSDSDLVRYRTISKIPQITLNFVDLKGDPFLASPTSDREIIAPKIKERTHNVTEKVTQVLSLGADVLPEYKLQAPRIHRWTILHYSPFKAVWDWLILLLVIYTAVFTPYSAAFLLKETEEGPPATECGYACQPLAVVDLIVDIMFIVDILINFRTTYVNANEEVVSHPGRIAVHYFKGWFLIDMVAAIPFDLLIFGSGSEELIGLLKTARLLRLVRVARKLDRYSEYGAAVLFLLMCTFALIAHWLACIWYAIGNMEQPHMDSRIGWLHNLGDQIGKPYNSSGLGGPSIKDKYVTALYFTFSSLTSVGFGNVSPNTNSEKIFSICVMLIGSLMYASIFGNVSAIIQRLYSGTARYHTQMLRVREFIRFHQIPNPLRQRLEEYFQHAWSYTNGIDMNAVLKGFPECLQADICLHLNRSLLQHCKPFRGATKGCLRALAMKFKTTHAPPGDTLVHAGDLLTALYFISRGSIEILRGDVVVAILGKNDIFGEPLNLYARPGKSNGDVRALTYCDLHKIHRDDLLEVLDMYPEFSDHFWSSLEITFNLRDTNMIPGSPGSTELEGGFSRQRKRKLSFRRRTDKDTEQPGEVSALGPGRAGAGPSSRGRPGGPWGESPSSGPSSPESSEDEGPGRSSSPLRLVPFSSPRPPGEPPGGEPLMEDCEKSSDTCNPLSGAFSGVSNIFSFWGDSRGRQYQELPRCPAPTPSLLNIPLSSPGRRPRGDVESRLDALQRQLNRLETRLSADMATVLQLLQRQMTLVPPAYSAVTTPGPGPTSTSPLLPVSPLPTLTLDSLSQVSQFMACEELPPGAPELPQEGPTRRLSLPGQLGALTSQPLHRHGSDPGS

## CC(C)N(C(=O)c1cc(F)ccc1Oc1cncnc1N1CC2(CCN(C[C@@H]3CC[C@@H](NS(=O)(=O)N4CCC4)CO3)CC2)C1)[C@H]1CCOC1 [Compound 134, 2-((4-(7-(((2S,5R)-5-(Azetidine-1-sulfonamido)tetrahydro-2H-pyran-2-yl)methyl)-2,7-diazaspiro[3.5]nonan-2-yl)pyrimidin-5-yl)oxy)-5-fluoro-N-isopropyl-N-((S)-tetrahydrofuran-3-yl)benzamide]
[1]
  hERG % Remaining 30 μM: +++ (“+++” means ≥66%)
[2]
  Ki: < 1 nM

## CC(C)N(CCC#N)C(=O)c1cc(F)ccc1Oc1cncnc1N1CC2(CCN(C[C@@H]3CC[C@@H](NS(=O)(=O)c4ccccc4)CO3)CC2)C1 [Compound 136, N-(2-Cyanoethyl)-5-fluoro-N-isopropyl-2-((4-(7-(((2S,5R)-5-(phenylsulfonamido)tetrahydro-2H-pyran-2-yl)methyl)-2,7-diazaspiro[3.5]nonan-2-yl)pyrimidin-5-yl)oxy)benzamide]
[1]
  hERG % Remaining 10 μM: +++ (“+++” means ≥66%)
  hERG % Remaining 30 μM: + (“+” means <33%)
[2]
  EC50: < 50 nM
  Ki: < 1 nM

## CC(C)N(C)C(=O)c1cc(F)ccc1Oc1cncnc1N1CC2(CCN(C[C@@H]3CC[C@@H](NS(=O)(=O)N4CCC4)CO3)CC2)C1 [Compound 138, 2-((4-(7-(((2S,5R)-5-(Azetidine-1-sulfonamido)tetrahydro-2H-pyran-2-yl)methyl)-2,7-diazaspiro[3.5]nonan-2-yl)pyrimidin-5-yl)oxy)-5-fluoro-N-isopropyl-N-methylbenzamide]
[1]
  hERG % Remaining 30 μM: +++ (“+++” means ≥66%)
[2]
  Ki: < 1 nM

## CCNS(=O)(=O)N[C@@H]1CC[C@@H](CN2CCC3(CC2)CN(c2ncncc2Oc2ccc(F)cc2C(=O)N(CC)C(C)C)C3)OC1 [Compound 141, N-Ethyl-2-((4-(7-(((2S,5R)-5-((N-ethylsulfamoyl)amino)tetrahydro-2H-pyran-2-yl)methyl)-2,7-diazaspiro[3.5]nonan-2-yl)pyrimidin-5-yl)oxy)-5-fluoro-N-isopropylbenzamide]
[1]
  hERG % Remaining 30 μM: +++ (“+++” means ≥66%)
[2]
  Ki: < 1 nM

## CCN(C(=O)c1cc(F)ccc1Oc1cncnc1N1CC2(CCN(C[C@@H]3CC[C@@H](NS(=O)(=O)NC4CC4)CO3)CC2)C1)C(C)C [Compound 142, 2-((4-(7-(((2S,5R)-5-((N-Cyclopropylsulfamoyl)amino)tetrahydro-2H-pyran-2-yl)methyl)-2,7-diazaspiro[3.5]nonan-2-yl)pyrimidin-5-yl)oxy)-N-ethyl-5-fluoro-N-isopropylbenzamide]
[1]
  hERG % Remaining 30 μM: ++ (“++” means ≥33% and <66%)
[2]
  Ki: < 1 nM

## CNS(=O)(=O)N[C@@H]1CC[C@@H](CN2CCC3(CC2)CN(c2ncncc2Oc2ccc(F)cc2C(=O)N(C(C)C)C(C)C)C3)OC1 [Compound 143, 5-Fluoro-N,N-diisopropyl-2-((4-(7-(((2S,5R)-5-((N-methylsulfamoyl)amino)tetrahydro-2H-pyran-2-yl)methyl)-2,7-diazaspiro[3.5]nonan-2-yl)pyrimidin-5-yl)oxy)benzamide]
[1]
  hERG % Remaining 30 μM: +++ (“+++” means ≥66%)
  IC50: ≥ 50000 nM
[1]; 100 μM compound
  hERG % Remaining 100 μM: +++ (“+++” means ≥66%)
[2]
  Ki: < 1 nM

## CCNS(=O)(=O)N[C@@H]1CC[C@@H](CN2CCC3(CC2)CN(c2ncncc2Oc2ccc(F)cc2C(=O)N(C(C)C)C(C)C)C3)OC1 [Compound 144, 2-((4-(7-(((2S,5R)-5-((N-Ethylsulfamoyl)amino)tetrahydro-2H-pyran-2-yl)methyl)-2,7-diazaspiro[3.5]nonan-2-yl)pyrimidin-5-yl)oxy)-5-fluoro-N,N-diisopropylbenzamide]
[1]
  hERG % Remaining 30 μM: +++ (“+++” means ≥66%)
[2]
  Ki: < 1 nM

## CCNS(=O)(=O)N[C@@H]1CC[C@@H](CN2CCC3(CC2)CN(c2ncncc2Oc2ccc(F)cc2C(=O)N(C(C)C)C2CC2)C3)OC1 [Compound 145, N-Cyclopropyl-2-((4-(7-(((2S,5R)-5-((N-ethylsulfamoyl)amino)tetrahydro-2H-pyran-2-yl)methyl)-2,7-diazaspiro[3.5]nonan-2-yl)pyrimidin-5-yl)oxy)-5-fluoro-N-isopropylbenzamide]
[1]
  hERG % Remaining 30 μM: +++ (“+++” means ≥66%)
[2]
  Ki: < 1 nM

## CCNS(=O)(=O)N[C@@H]1CC[C@@H](CN2CCC3(CC2)CN(c2ncncc2Oc2ccc(F)cc2C(=O)N(CC(F)F)C(C)C)C3)OC1 [Compound 147, N-(2,2-Difluoroethyl)-2-((4-(7-(((2S,5R)-5-((N-ethylsulfamoyl)amino)tetrahydro-2H-pyran-2-yl)methyl)-2,7-diazaspiro[3.5]nonan-2-yl)pyrimidin-5-yl)oxy)-5-fluoro-N-isopropylbenzamide]
[1]
  hERG % Remaining 10 μM: +++ (“+++” means ≥66%)
  hERG % Remaining 30 μM: +++ (“+++” means ≥66%)
  IC50: ≥ 50000 nM
[2]
  Ki: < 1 nM

## CC(C)N(CC(F)F)C(=O)c1cc(F)ccc1Oc1cncnc1N1CC2(CCN(C[C@@H]3CC[C@@H](NS(=O)(=O)NCC4CC4)CO3)CC2)C1 [Compound 148, 2-((4-(7-(((2S,5R)-5-((N-(Cyclopropylmethyl)sulfamoyl)amino)tetrahydro-2H-pyran-2-yl)methyl)-2,7-diazaspiro[3.5]nonan-2-yl)pyrimidin-5-yl)oxy)-N-(2,2-difluoroethyl)-5-fluoro-N-isopropylbenzamide]
[1]
  hERG % Remaining 30 μM: +++ (“+++” means ≥66%)
[2]
  Ki: < 1 nM

## CC(C)N(CC(F)F)C(=O)c1cc(F)ccc1Oc1cncnc1N1CC2(CCN(C[C@@H]3CC[C@@H](NS(=O)(=O)NC4CC4)CO3)CC2)C1 [Compound 149, 2-((4-(7-(((2S,5R)-5-((N-Cyclopropylsulfamoyl)amino)tetrahydro-2H-pyran-2-yl)methyl)-2,7-diazaspiro[3.5]nonan-2-yl)pyrimidin-5-yl)oxy)-N-(2,2-difluoroethyl)-5-fluoro-N-isopropylbenzamide]
[1]
  hERG % Remaining 30 μM: +++ (“+++” means ≥66%)
[2]
  Ki: < 1 nM

## CCNS(=O)(=O)N[C@@H]1CC[C@@H](CN2CCC3(CC2)CN(c2ncncc2Oc2ccc(F)cc2C(=O)N(CC(F)(F)F)C(C)C)C3)OC1 [Compound 153, 2-((4-(7-(((2S,5R)-5-((N-Ethylsulfamoyl)amino)tetrahydro-2H-pyran-2-yl)methyl)-2,7-diazaspiro[3.5]nonan-2-yl)pyrimidin-5-yl)oxy)-5-fluoro-N-isopropyl-N-(2,2,2-trifluoroethyl)benzamide]
[1]
  hERG % Remaining 30 μM: +++ (“+++” means ≥66%)
  IC50: ≥ 50000 nM
[2]
  Ki: < 1 nM

## CNS(=O)(=O)N[C@@H]1CC[C@@H](CN2CCC3(CC2)CN(c2ncncc2Oc2ccc(F)cc2C(=O)N(C(C)C)C2CC(F)(F)C2)C3)OC1 [Compound 154]
[1]
  hERG % Remaining 10 μM: +++ (“+++” means ≥66%)
  hERG % Remaining 30 μM: ++ (“++” means ≥33% and <66%)
[2]
  Ki: < 1 nM

## CCNS(=O)(=O)N[C@@H]1CC[C@@H](CN2CCC3(CC2)CN(c2ncncc2Oc2ccc(F)cc2C(=O)N(C(C)C)C2CC(F)(F)C2)C3)OC1 [Compound 155, N-(3,3-Difluorocyclobutyl)-2-((4-(7-(((2S,5R)-5-((N-ethylsulfamoyl)amino)tetrahydro-2H-pyran-2-yl)methyl)-2,7-diazaspiro[3.5]nonan-2-yl)pyrimidin-5-yl)oxy)-5-fluoro-N-isopropylbenzamide]
[1]
  hERG % Remaining 10 μM: +++ (“+++” means ≥66%)
  hERG % Remaining 30 μM: ++ (“++” means ≥33% and <66%)
[2]
  Ki: < 1 nM

## CC(C)N(C(=O)c1cc(F)ccc1Oc1cncnc1N1CC2(CCN(C[C@@H]3CC[C@@H](NS(=O)(=O)c4cnn(C)c4)CO3)CC2)C1)C1CC(F)(F)C1 [Compound 156, N-(3,3-Difluorocyclobutyl)-5-fluoro-N-isopropyl-2-((4-(7-(((2S,5R)-5-((1-methyl-1H-pyrazole)-4-sulfonamido)tetrahydro-2H-pyran-2-yl)methyl)-2,7-diazaspiro[3.5]nonan-2-yl)pyrimidin-5-yl)oxy)benzamide]
[1]
  hERG % Remaining 30 μM: +++ (“+++” means ≥66%)
[2]
  Ki: < 1 nM

## C[C@@H]1COC[C@@H](C)N1C(=O)c1cc(F)ccc1Oc1cncnc1N1CC2(CCN(C[C@@H]3CC[C@@H](NS(=O)(=O)NCC4CC4)CO3)CC2)C1 [Compound 158, (Cyclopropylmethyl)({[(3R,6S)-6-{[2-(5-{2-[(3R,5R)-3,5-dimethylmorpholine-4-carbonyl]-4-fluorophenoxy}pyrimidin-4-yl)-2,7-diazaspiro[3.5]nonan-7-yl]methyl}oxan-3-yl]sulfamoyl})amine]
[1]
  hERG % Remaining 30 μM: +++ (“+++” means ≥66%)
[2]
  Ki: < 1 nM

## C[C@@H]1COC[C@H](C)N1C(=O)c1cc(F)ccc1Oc1cncnc1N1CC2(CCN(C[C@@H]3CC[C@@H](NS(=O)(=O)N4CCC4)CO3)CC2)C1 [Compound 161, N-((3R,6S)-6-((2-(5-(2-((3R,5S)-3,5-Dimethylmorpholine-4-carbonyl)-4-fluorophenoxy)pyrimidin-4-yl)-2,7-diazaspiro[3.5]nonan-7-yl)methyl)tetrahydro-2H-pyran-3-yl)azetidine-1-sulfonamide]
[1]
  hERG % Remaining 30 μM: +++ (“+++” means ≥66%)
[2]
  Ki: < 1 nM

## CC(C)N(C(=O)c1cc(F)ccc1Oc1cncnc1N1CC2(CCN(C[C@@H]3CC[C@@H](NS(=O)(=O)C4CC4)CO3)CC2)C1)[C@@H]1CCOC1 [Compound 164, 2-((4-(7-(((2S,5R)-5-(Cyclopropanesulfonamido)tetrahydro-2H-pyran-2-yl)methyl)-2,7-diazaspiro[3.5]nonan-2-yl)pyrimidin-5-yl)oxy)-5-fluoro-N-isopropyl-N-((R)-tetrahydrofuran-3-yl)benzamide]
[1]
  hERG % Remaining 10 μM: +++ (“+++” means ≥66%)
  hERG % Remaining 30 μM: +++ (“+++” means ≥66%)
[2]
  EC50: < 50 nM
  Ki: < 1 nM

Reference: US11919901B2 (Syndax Pharmaceuticals, Inc., priority 2021, dated 2024)
